Experimental data published in paper PMC3994220 (Nanoscale Research Letters, 2014).
≈ marks a conversion by molar mass, not a printed value.

Test: Paclitaxel plasma solubility (excess drug equilibrated in rodent plasma, HPLC)
Assay type: physicochemical
Conditions: 37°C, 24 h equilibration
Description: where dC/dt is the dissolution rate, D is the solute diffusion coefficient, V is the volume of the dissolution medium, hd is the diffusion boundary thickness, S is the surface area of the solute, Cs is the saturation solubility of the solute, and Ct(t) is the bulk solute concentration. The stability of the crystalline nanosuspension was monitored for a period of 3 weeks for particle size, PXRD, and chemical stability (by HPLC). […] Excess drug was then removed by centrifugation which was followed by protein precipitation, and the concentration was measured by HPLC with an external standard.

solubility at 24 h: 40 µg/mL (≈ 46.8 µM)
SMILES: CC(=O)O[C@H]1C(=O)[C@@]2(C)[C@H]([C@H](OC(=O)c3ccccc3)[C@]3(O)C[C@H](OC(=O)[C@H](O)[C@@H](NC(=O)c4ccccc4)c4ccccc4)C(C)=C1C3(C)C)[C@]1(OC(C)=O)CO[C@@H]1C[C@@H]2O [paclitaxel]
